Square brackets hold non-standard residues; d marks the D form. Peptide text beside a SMILES is read from it. Phe(4-NH2) = Nc1ccc(C[C@H](N)C(=O)O)cc1
Biological target: T1, Angiotensin II receptor (AT-1) type-1 (Rattus norvegicus, UniProt P29089+P25095)
T1 sequence (P29089 whole entry): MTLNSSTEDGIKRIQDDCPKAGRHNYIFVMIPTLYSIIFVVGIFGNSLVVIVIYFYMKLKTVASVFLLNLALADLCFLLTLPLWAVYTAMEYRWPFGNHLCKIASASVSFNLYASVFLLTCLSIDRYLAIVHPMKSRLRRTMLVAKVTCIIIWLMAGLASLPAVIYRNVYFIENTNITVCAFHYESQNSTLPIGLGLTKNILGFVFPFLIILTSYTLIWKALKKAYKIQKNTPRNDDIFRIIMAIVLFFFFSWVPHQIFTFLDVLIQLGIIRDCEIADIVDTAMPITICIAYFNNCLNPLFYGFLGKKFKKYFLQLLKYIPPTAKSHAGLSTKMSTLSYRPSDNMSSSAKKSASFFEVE
T1 sequence (P25095 whole entry): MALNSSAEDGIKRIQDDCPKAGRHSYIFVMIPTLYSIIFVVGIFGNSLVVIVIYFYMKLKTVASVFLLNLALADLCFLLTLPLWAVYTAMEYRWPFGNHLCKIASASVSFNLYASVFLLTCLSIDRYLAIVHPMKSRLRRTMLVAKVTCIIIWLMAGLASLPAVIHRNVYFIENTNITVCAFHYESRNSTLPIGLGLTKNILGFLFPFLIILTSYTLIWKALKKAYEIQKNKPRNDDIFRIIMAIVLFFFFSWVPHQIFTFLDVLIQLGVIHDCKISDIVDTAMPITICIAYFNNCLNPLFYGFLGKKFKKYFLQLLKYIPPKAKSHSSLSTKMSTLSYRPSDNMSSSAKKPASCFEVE
Experiment: Displacement of [125I]-Ang II from rat liver membrane angiotensin II type 1 (AT1) receptor

Ki: > 10 µM
SMILES: CC[C@H](C)[C@H](NC(=O)[C@H](Cc1ccc(O)cc1)NC(=O)[C@@H](NC(=O)[C@H](CCCN=C(N)N)NC(=O)[C@@H](N)CC(=O)O)C(C)C)C(=O)N[C@@H](Cc1ccc(N)cc1)C(=O)N1CCC[C@H]1C(=O)N[C@@H](Cc1ccccc1)C(=O)O (H-DRVYI[Phe(4-NH2)]PF-OH)

Reference: ChEMBL document CHEMBL1139433 (J Med Chem, 2004)
